Test results as given in the supplement of paper PMC13380429.

What was measured:
Details in all cases: 72 h
Caco-2 [1] = test: cell viability relative to DMSO; higher = less toxic
Calu-3 [2] = test: as above
HepG2 [3] = test: as above
U2OS [4] = test: as above
Vero E6 [5] = test: as above
Caco-2 [6] = test: relative viability EC50 (midpoint between 100% and the lowest measured viability); higher = less toxic
Calu-3 [7] = test: as above
HepG2 [8] = test: as above
U2OS [9] = test: as above
Vero E6 [10] = test: as above
Caco-2 [11] = test: drug sensitivity score (DSS) for viability; higher = more toxic; extreme values may be limits of the assay
Calu-3 [12] = test: as above
HepG2 [13] = test: as above
U2OS [14] = test: as above
Vero E6 [15] = test: as above

SMILES | cell viability (Caco-2 [1]; 1 nM) [%] | cell viability (Caco-2 [1]; 10 nM) [%] | cell viability (Caco-2 [1]; 100 nM) [%] | cell viability (Caco-2 [1]; 1000 nM) [%] | cell viability (Caco-2 [1]; 10000 nM) [%] | cell viability (Calu-3 [2]; 1 nM) [%] | cell viability (Calu-3 [2]; 10 nM) [%] | cell viability (Calu-3 [2]; 100 nM) [%] | cell viability (Calu-3 [2]; 1000 nM) [%] | cell viability (Calu-3 [2]; 10000 nM) [%] | cell viability (HepG2 [3]; 1 nM) [%] | cell viability (HepG2 [3]; 10 nM) [%] | cell viability (HepG2 [3]; 100 nM) [%] | cell viability (HepG2 [3]; 1000 nM) [%] | cell viability (HepG2 [3]; 10000 nM) [%] | cell viability (U2OS [4]; 1 nM) [%] | cell viability (U2OS [4]; 10 nM) [%] | cell viability (U2OS [4]; 100 nM) [%] | cell viability (U2OS [4]; 1000 nM) [%] | cell viability (U2OS [4]; 10000 nM) [%] | cell viability (Vero E6 [5]; 1 nM) [%] | cell viability (Vero E6 [5]; 10 nM) [%] | cell viability (Vero E6 [5]; 100 nM) [%] | cell viability (Vero E6 [5]; 1000 nM) [%] | cell viability (Vero E6 [5]; 10000 nM) [%] | relative viability EC50 (Caco-2 [6]) [µM] | relative viability EC50 (Calu-3 [7]) [µM] | relative viability EC50 (HepG2 [8]) [µM] | relative viability EC50 (U2OS [9]) [µM] | relative viability EC50 (Vero E6 [10]) [µM] | drug sensitivity score (Caco-2 [11]) | drug sensitivity score (Calu-3 [12]) | drug sensitivity score (HepG2 [13]) | drug sensitivity score (U2OS [14]) | drug sensitivity score (Vero E6 [15])
CC(=O)CC/C=C(\C)CC/C=C(\C)CC/C=C(\C)CCC=C(C)C [teprenone] | 96.9 | 88.2 | 93.7 | 98.6 | 116 | 92.2 | 88.5 | 99.7 | 95.5 | 94.9 | 96.3 | 102 | 97.4 | 92.3 | 101 | 102 | 95.4 | 103 | 96.9 | 99.2 | 94.8 | 103 | 92.6 | 103 | 100 | > 10 | > 10 | > 10 | > 10 | > 10 | 0 | 0 | 0 | 0 | 0
CC(C)=CC[C@@H](O)C1=CC(=O)c2c(O)ccc(O)c2C1=O [Shikonin] | 99.6 | 103 | 94.3 | 30.6 | 1.1 | 98.7 | 112 | 96.5 | 36.5 | 2 | 102 | 97.5 | 97.4 | 2.2 | -0.3 | 96.9 | 100 | 89.5 | 4.8 | 0.2 | 95.8 | 96.3 | 91.2 | 6.1 | -0.3 | 0.587 | 0.711 | 0.313 | 0.26 | 0.29 | 14.1 | 13 | 18 | 18.9 | 18.3
CC(=O)[C@H]1CC[C@H]2[C@@H]3CC=C4C[C@@H](O)CC[C@]4(C)[C@H]3CC[C@]12C [pregnenolone] | 97.1 | 95.9 | 88.9 | 90.4 | 90.4 | 96.8 | 101 | 101 | 97.1 | 98.6 | 98.9 | 96 | 99.6 | 92.7 | 93.6 | 91.5 | 96.4 | 93.5 | 99.1 | 94.7 | 102 | 104 | 99.5 | 88.4 | 95.2 | > 10 | > 10 | > 10 | > 10 | > 10 | 0.3 | 0 | 0 | 0 | 0.4
